# According to patent US20080171710A1, “The Redox/Fyn/c-Cbl Pathway” (priority 2007, published 2008):
# Columns and labels:
# [1] = tested on: NF-κB-luciferase reporter; assay: NF-κB-luciferase reporter assay; assay type: cell-based, rat
# Description: (§1) Cells were deprived of PDGF-AA for 5 h before re-exposure to PDGF-AA (10 ng/ml) for 1 h for Western blot or 6 h for luciferase assays of pathway activation. Transient transfection was performed using Fugene6 (Roche, Basel, Switzerland ) transfection solution according to the manufacturer's protocol. For the luciferase assay, cells seeded in 12-well plates were transfected with a reporter plasmid SRE-Luc(firefly) or NF-κB-Luc(firefly) (BD-Clontech, Palo Alto, Calif., United States) and an internal control plasmid pRLSV40-LUC. Analyses of luciferase activity were performed according to the protocol of the Dual Luciferase Assay System (Promega, Madison, Wis., United States), which uses an internal control of Renilla luciferase for quantification, and relative light units were measured using a luminometer.
# Fyn = molecular target: T1, Fyn (Rattus norvegicus, UniProt Q62844); assay type: cell-based
# T1 construct: 250 μg of total cell lysates were immunoprecipitated with anti-Fyn antibody; endogenous in cells; host or cells: primary rat O-2A/OPCs
# T1 sequence (Q62844 whole entry): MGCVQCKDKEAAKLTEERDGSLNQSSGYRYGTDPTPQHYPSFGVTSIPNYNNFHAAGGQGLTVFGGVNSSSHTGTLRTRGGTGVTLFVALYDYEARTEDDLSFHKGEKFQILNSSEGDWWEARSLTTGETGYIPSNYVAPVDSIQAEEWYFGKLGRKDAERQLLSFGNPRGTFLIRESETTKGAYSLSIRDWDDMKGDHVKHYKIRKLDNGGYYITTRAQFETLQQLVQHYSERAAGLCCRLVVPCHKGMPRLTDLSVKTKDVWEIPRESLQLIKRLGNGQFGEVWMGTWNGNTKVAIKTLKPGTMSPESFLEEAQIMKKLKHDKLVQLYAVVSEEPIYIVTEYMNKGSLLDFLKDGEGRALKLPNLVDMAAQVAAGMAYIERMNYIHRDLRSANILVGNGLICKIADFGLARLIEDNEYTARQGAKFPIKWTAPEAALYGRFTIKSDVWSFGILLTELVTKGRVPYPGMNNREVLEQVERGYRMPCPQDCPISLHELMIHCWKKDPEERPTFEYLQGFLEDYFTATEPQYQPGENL
# Method in brief: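 Rat O-2A/OPC lysates (250 μg total protein) immunoprecipitated with anti-Fyn antibody. Washed Fyn immune complexes assayed for tyrosine kinase activity with a universal tyrosine kinase kit.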
# PDGFRα [2] = assay type: cell-based, rat
# PDGFRα [3] = assay: PDGFRα phosphorylation (Western blot, anti-PDGFRα(pY742)); assay type: cell-based, rat
# c-Met = assay type: cell-based, rat
# Method in brief: (§2)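 Western blot of cell lysates or sonicated tissue in RAPI buffer, SDS-PAGE to PVDF, primary antibodies (phospho-Erk, phospho-Akt, receptor, phospho-tyrosine), HRP secondary and luminol detection. Signaling analysed in presence of the cognate ligand: EGF for EGFR, NT-3 for TrkC, HGF for c-Met.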
# EGFR = assay type: cell-based, rat
# Method in brief: as §2
# Erk1/2 = assay type: cell-based, rat
# Akt = assay type: cell-based, rat
# Method in brief: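 Cells deprived of PDGF-AA for 5 h, then re-exposed to PDGF-AA (10 ng/ml) for 1 h. Lysates in RIPA buffer resolved by SDS-PAGE and immunoblotted with phospho-specific and total Akt or Erk antibodies, detected by HRP chemiluminescence.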
# O-2A/OPCs = assay: In vitro BrdU incorporation assay; assay type: cell-based, rat
# Method in brief: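 Surface antigens stained on live or 2% paraformaldehyde-fixed cells; intracellular ones after ice-cold methanol (4 min) or 0.5% Triton (15 min). Fluorescent secondary antibodies applied for 20 min.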
# c-Cbl = assay type: cell-based, rat
# Method in brief: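 Pre-cleared cell lysates (250 μg total protein) immunoprecipitated with anti-c-Cbl or anti-PDGFRα antibody (2 h, 4° C), then protein A/G agarose overnight at 4° C. Precipitates run on 8% SDS-PAGE and Western blotted with anti-p-Tyr (c-Cbl phosphorylation) or anti-ubiquitin (PDGFR ubiquitylation).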
# SRE-luciferase reporter = SRE-luciferase reporter assay; assay type: cell-based, rat
# Description: as §1
# [4] = 30 nM MeHg, 1 μM Pb, 5 μM paraquat
# [5] = 1 mM NAC in the absence of toxicants
# [6] = NAC 1 mM, PP1 100 nM or ICI 182,780 200 nM with TMX
# [7] = added 1 h before Pb or paraquat
smiles,measurement,setting,value
"[CH3][Hg][Cl] [MeHg, methylmercury]",PDGF-induced NF-κB-luciferase reporter expression,"[1]; 30 nM MeHg, 24 h",decreased
same,Fyn activation after toxicant exposure,Fyn; [4],stimulated Fyn activation
same,PDGFRα loss in the presence of cycloheximide,"PDGFRα [2]; MeHg 20 nM plus cycloheximide, versus cycloheximide alone",further accelerated receptor loss
same,total levels of PDGFRα after toxicant exposure,"PDGFRα [2]; MeHg 30 nM, 1 μM Pb, 5 μM paraquat",reduction in levels of the PDGFRα itself
same,phosphorylation of PDGFRα after toxicant exposure,PDGFRα [3]; [4],also reduced
same,levels of c-Met after toxicant exposure,"c-Met; MeHg, Pb or paraquat",reductions
same,levels of EGFR after toxicant exposure,"EGFR; MeHg, Pb or paraquat",reductions
same,NT-3-induced Erk1/2 phosphorylation,Erk1/2; 30 nM MeHg,no reduction in Erk1/2 phosphorylation
same,PDGF-induced Erk1/2 phosphorylation after toxicant exposure,"Erk1/2; 30 nM MeHg 24 h, 1 μM Pb, 5 μM paraquat",reduced ERK1/2 phosphorylation
same,PDGF-induced Akt phosphorylation,"Akt; 30 nM MeHg, 24 h",decreased
same,drop in the percentage of O-2A/OPCs incorporating BrdU,"O-2A/OPCs; 20 nM MeHg, stimulation with PDGF",approximately 25%
same,c-Cbl phosphorylation after toxicant exposure,c-Cbl; [4],stimulated
same,NT-3-induced expression from SRE-luciferase reporter,SRE-luciferase reporter; 30 nM MeHg,no reduction in NT-3-induced expression
same,PDGF-induced SRE-luciferase reporter expression,"SRE-luciferase reporter; 30 nM MeHg, 24 h",reduced expression
"CC(=O)N[C@@H](CS)C(=O)O [NAC, N-acetyl-L-cysteine]",effect on MeHg suppression of Nf-κB reporter activity,[1]; 1 mM NAC with MeHg,rescued normal level
same,effect on basal Fyn activity,Fyn; [5],"only a slight, insignificant effect"
same,effect on TMX-induced activation of Fyn,Fyn; [6],blocked
same,effect on MeHg-induced Fyn activation,Fyn; added 1 h before MeHg,blocked
same,effect on Pb- and paraquat-induced Fyn activation,Fyn; [7],blocked
same,effect on TMX-induced reductions in levels of PDGFRα,PDGFRα [2]; [6],blocked
same,effect on EtOH-induced reduction of PDGFRα levels,PDGFRα [2]; NAC added 1 hr before EtOH,substantial rescue
same,effect on Aβ-induced reduction in PDGFRα levels,PDGFRα [2]; co-exposure with Aβ,blocked
same,effect on MeHg-induced reductions in levels of PDGFRα,PDGFRα [2]; together with MeHg,prevented
same,effect on Pb- and paraquat-induced reductions in levels of PDGFRα,PDGFRα [2]; together with Pb (1 μM) or paraquat (5 μM),protected
same,effect on MeHg-induced suppression of PDGFRα phosphorylation,PDGFRα [3]; co-exposure with MeHg,rescued
same,effect on EtOH-induced reduction of c-Met levels,c-Met; NAC added 1 hr before EtOH,substantial rescue
same,effect on toxicant-associated reductions in c-Met levels,"c-Met; NAC with MeHg, Pb, or paraquat",protected
same,effect on EtOH-induced reduction of EGFR levels,EGFR; NAC added 1 hr before EtOH,substantial rescue
same,effect on toxicant-associated reductions in EGFR levels,"EGFR; NAC with MeHg, Pb, or paraquat",protected
same,effect on EtOH suppression of Erk1/2 phosphorylation,Erk1/2; 1 mM NAC with EtOH,rescued
same,effect on Aβ(1-42) suppression of PDGF-mediated Erk1/2 phosphorylation,Erk1/2; co-exposure with Aβ(1-42),blocked
same,effect on MeHg-associated suppression of Erk1/2 phosphorylation,Erk1/2; co-treatment with MeHg,rescued
same,effect on Pb and paraquat effects on Erk1/2 phosphorylation,Erk1/2; co-treatment with Pb or paraquat,protected
same,effect on EtOH suppression of Akt phosphorylation,Akt; 1 mM NAC with EtOH,rescued
same,effect on MeHg suppression of Akt phosphorylation,Akt; 1 mM NAC with MeHg,rescued
same,effect on TMX effect on cell proliferation,"O-2A/OPCs; with TMX, 2 days",blocked
same,effect on levels of c-Cbl phosphorylation without toxicant,c-Cbl; [5],did not have any marked effect
same,effect on TMX-induced activation of c-Cbl,c-Cbl; [6],blocked
same,effect on MeHg-induced c-Cbl phosphorylation,c-Cbl; added 1 h before MeHg,blocked
same,effect on Pb- and paraquat-induced c-Cbl phosphorylation,c-Cbl; [7],blocked
same,effect on Aβ-induced increase in phosphorylated c-Cbl,c-Cbl; co-exposure with Aβ,blocked
same,effect on MeHg suppression of SRE reporter activity,SRE-luciferase reporter; 1 mM NAC with MeHg,rescued normal level
